Test results: patent US9181249B2, “Substituted pyrido[3,4-b]pyrazines as GPR6 modulators” (Takeda Pharmaceutical Company Limited, priority 2013, dated 2015)
Marks after values point to notes of the source that are not given here.

Experiments:
[1] = system: 6-hydroxydopamine lesioned rats (motor activity); assay: Example C 6-Hydroxydopamine Lesion Model In Vivo Rodent Parkinson's Disease Model; conditions: adult female rats, bilateral striatal 6-hydroxydopamine lesion, counts for 3 hours after dosing
Protocol: 6-Hydroxydopamine Lesion Model In Vivo Rodent Parkinson's Disease Model
Adult female rats (10) were first assessed for pre-surgery motor activity using an automated activity tracking system that records beam breaks across the testing arena floor. Beam breaks were summed over the first 3 hours after the animals were placed into the arena and recorded as activity counts. To selectively damage dopaminergic nerve terminals in the striatum, 20 μg of the 6-hydroxydopamine was injected directly into the striatum bilaterally (i.e., on both sides of the brain). After 4 weeks of recovery, the rats were again tested for motor activity, and a significant reduction in activity counts was observed. Vehicle and the compound of Example 47 (0.5% methylcellulose) was orally dosed at 0.1, 1.0, or 10 mg/kg in a cross-over study design (5-10 day wash out period), and after dosing activity counts were measured for 3 hours. At the end of the study period, when each animal had received each treatment once, the data were analyzed. The activity counts (standard error of the mean) for the group pre-surgery and post-surgery and for treated and vehicle control were determined and are provide in Table 3 below: […]

[2] = system: haloperidol-induced catalepsy; assay: Example B Haloperidol-Induced Catalepsy In Vivo Rodent Parkinson's Disease Model; conditions: Rat
Description: Haloperidol-Induced Catalepsy In Vivo Rodent Parkinson's Disease Model
The motor symptoms of Parkinson's disease include akinesia, bradykinesia, rigidity, tremor and postural abnormalities and are associated with the loss of nigral dopaminergic cells and a decline in striatal dopamine levels. Administration of haloperidol to rodents leads to a transient parkinsonian-like state that is reversed by the administration of L-Dopa (Duty, S.; Jenner, P. Br. J. Pharmacol. (2011), 164, 1357-1391) and other drugs that have been clinically validated for the treatment of Parkinson's disease. Haloperidol antagonizes dopamine D2 and, to a lesser extent, D1 receptors in medium spiny neurons that comprise the indirect and direct pathways of the motor circuit respectively. The resultant block of striatal dopamine transmission results in abnormal downstream firing within the basal ganglia circuits that is manifest as symptoms of muscle rigidity and catalepsy. Catalepsy has been postulated to reflect the clinical features of Parkinson's disease, whereby patients experience an inability of to initiate movements.
Male Sprague-Dawley rats (Charles River, Calco, Italy) weighing 175-200 g are used. Alternatively, male C57Bl6 mice weighing 25-35 g were used. The cataleptic state was induced by the subcutaneous administration of the dopamine receptor antagonist haloperidol (0.3 mg/kg, sc), 90 min before testing the animals on the vertical grid test. For this test, the rats or mice were placed on the wire mesh cover of a 25 cm×43 cm plexiglass cage placed at an angle of about 70 degrees with the bench table. The subject was placed on the grid with all four legs abducted and extended (“frog posture”). The use of such an unnatural posture is essential for the specificity of this test for catalepsy. The time span from placement of the paws until the first complete removal of one paw (descent latency) was measured maximally for 120 sec for rats. For mice, the front paws of a mouse was placed on a horizontal metal bar raised 2″ above a Plexiglas platform and time was recorded for up to 30 seconds per trial. The test ended when the animal's front paws returned to the platform or after 30 seconds. The test was repeated three times and the average of the three trials was reported as the intensity index of catalepsy.
Catalepsy was measured 30 min, 120 min, and/or 240 min after dosing the subjects a 0.3 mg/kg i.p. dose of haloperidol along with the GPR6 modulator test compound. Test compound plasma and brain levels were determined by collected tissue samples at the end of the experiment, which was either at the 120 or 240 min time point. A representative number of compounds of the invention were administered in a dose range from 0.1 to 100 mg/kg i.p, sc or po in conjunction with haloperidol. The A2a antagonist KW6002 (istradefylline) was dosed at 0.6 mg/kg i.p. as a positive control.

Q: For `CC(=O)N1CCc2nc(N3CCC(Oc4ccc(F)cc4F)CC3)c(NC(C)C)nc2C1` [Example 47, 1-(2-(4-(2,4-difluorophenoxyl)piperidin-1-yl)-3-(isopropylamino)-7,8-dihydropyrido[3,4-b]pyrazin-6(5H)-yl)ethanone], which “activity counts, Mean” value ([1]; orally dosed 0.1 mg/kg) is on record?
A: 11422*

Q: What about the “activity counts, Mean” value ([1]; orally dosed 1.0 mg/kg) of the same compound?
A: 15334*

Q: And the “activity counts, Mean” value ([1]; orally dosed 10 mg/kg)?
A: 19368*

Q: What about the “% reversal 30 min” value ([2]; 0.1 mpk i.p.) of the same compound?
A: −5.7%

Q: What about the “% reversal 120 min” value ([2]; 0.1 mpk i.p.) of the same compound?
A: 27.3%

Q: What about the “% reversal 30 min” value ([2]; 1 mpk i.p.) of the same compound?
A: 39.1%

Q: What about the “% reversal 120 min” value ([2]; 1 mpk i.p.) of the same compound?
A: 57.9* %

Q: What about the “% reversal 30 min” value ([2]; 10 mpk i.p.) of the same compound?
A: 83.4* %

Q: And the “% reversal 120 min” value ([2]; 10 mpk i.p.)?
A: 76.5* %

Q: What about the “% reversal 30 min” value ([2]; 30 mpk i.p.) of the same compound?
A: 75.7* %

Q: What about the “% reversal 120 min” value ([2]; 30 mpk i.p.) of the same compound?
A: 82.1* %
